From patent US4330532A, “Angiotensin-II analogues with antagonizing effects, containing an α-hydroxycarboxylic acid residue in position 8, and a process for the preparation thereof” (Richter Gedeon Vegyeszeti Gyar Rt., priority 1980, dated 1982)

Test system: hypertension provoked by angiotensin-II (Hypertensin (CIBA) infusion)
Assay: Antagonistic (hypotensive) effect on Hypertensin-infused narcotized male cats
Format: in vivo, cat
Method: The antagonistic effects of the new compounds of the formula (I) were investigated on narcotized male cats. After treating the animals with a ganglion blocking agent and bisecting the cervical vagus nerves on both sides, the animals were treated with an infusion of Hypertensin (CIBA) at a rate of 0.5 μg/kg/min. When the blood pressure of the animals reached a steady, increased level, the substance to be tested was administered either intravenously or subcutaneously in physiological saline solution or as an aqueous solution which also contained a carrier. The blood pressure drop was measured in mm Hg units, and the extent of decrease was expressed in percents related to the value before treatment. The statistical evaluation was performed on the basis of the blood pressure differences, by Student's single sample "t" test. The term "duration of effect" denotes the period elapsed until the observation of the last still significant (p±5%) blood pressure difference.

[1] = s.c., carboxymethyl cellulose (CMC) carrier, dose 100 μg/kg
[2] = s.c., carboxymethyl cellulose (CMC) carrier, dose 200 μg/kg
[3] = s.c., gelatine carrier, dose 200 μg/kg
[4] = s.c., physiological saline, dose 100 μg/kg
[5] = s.c., physiological saline, dose 200 μg/kg

For `CNCC(=O)N[C@@H](CCCN=C(N)N)C(=O)N[C@H](C(=O)N[C@@H](Cc1ccc(O)cc1)C(=O)N[C@H](C(=O)N[C@@H](Cc1cnc[nH]1)C(=O)N1CCC[C@H]1C(=O)N[C@@H](C)C(=O)O)C(C)C)C(C)C` [Saralasin, (Sar^1, Ala^8)-angiotensin-II], the “blood pressure drop, extent of decrease in percents related to the value before treatment” value (i.v., dose 10 μg/kg) was 32%, the duration of effect (i.v., dose 10 μg/kg) was 15 min and the “blood pressure drop, extent of decrease in percents related to the value before treatment” value [1] was 23%. The duration of effect [1] was 45 min, the “blood pressure drop, extent of decrease in percents related to the value before treatment” value [2] was 28% and the duration of effect [2] was 90 min. The “blood pressure drop, extent of decrease in percents related to the value before treatment” value [3] was 23%, the duration of effect [3] was “.phi” and the “blood pressure drop, extent of decrease in percents related to the value before treatment” value [4] was 29%. For the same molecule, the duration of effect [4] was 60 min, the “blood pressure drop, extent of decrease in percents related to the value before treatment” value [5] was 24% and the duration of effect [5] was 45 min.
